In patent US9580444B2, “Polycyclic pyrazolinone derivative and herbicide comprising same as effective component thereof” (priority 2013, dated 2017):

Legend:
Type in all cases: in vivo
[1] = system: Cyperus difformis (smallflower umbrella plant); assay: Test Example-1: herbicidal effect by a treatment before weeds are generated under submerged conditions; settings: 500 g a.i/ha, pre-emergence treatment, about 15 days after treatment, score 0-5
Method in brief: (§1)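 Treatment is made before weed emergence: seeds sit in puddled, submerged paddy soil and receive the diluted wettable powder or emulsifiable concentrate into the water at a fixed dosage. Rating on a 0–5 scale follows after around 15 days.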

[2] = system: Echinochloa oryzicola (barnyard grass); assay: as above; settings: 500 g a.i/ha, pre-emergence treatment, about 15 days after treatment, score 0-5
Method in brief: as §1

[3] = system: Eleocharis acicularis (needle spikerush); assay: as above; settings: 500 g a.i/ha, pre-emergence treatment, about 15 days after treatment, score 0-5
Method in brief: as §1

[4] = system: Monochoria vaginalis (monochoria); assay: as above; settings: 500 g a.i/ha, pre-emergence treatment, about 15 days after treatment, score 0-5
Method in brief: as §1

[5] = system: Scirpus juncoides (bulrush); assay: as above; settings: 500 g a.i/ha, pre-emergence treatment, about 15 days after treatment, score 0-5
Method in brief: as §1

[6] = system: other annual broad leaf weeds (Lindernia procumbens, Rotala indica, Elatine triandra); assay: as above; settings: 500 g a.i/ha, pre-emergence treatment, about 15 days after treatment, score 0-5
Method in brief: as §1

[7] = system: Amaranthus viridis (green amaranthus); assay: Test Example-2: herbicidal effect by a soil treatment before weeds are generated under upland field conditions; settings: application amount 500 g a.i/ha, soil spray treatment before weeds are generated, about 21 days after the treatment, score 0 to 5
Method in brief: (§2)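 Pre-emergence soil treatment: seeds sown in upland soil and covered with about 0.5 cm soil were sprayed the next day with diluted wettable powder or emulsifiable concentrate at a predetermined dosage. Weed control and corn injury were scored on a 0–5 scale about 21 days after treatment.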

[8] = system: Chenopodium album (common lambsquarters); assay: as above; settings: application amount 500 g a.i/ha, soil spray treatment before weeds are generated, about 21 days after the treatment, score 0 to 5
Method in brief: as §2

corn [9] = assay: Test Example-2: phytotoxicity by a soil treatment before weeds are generated under upland field conditions; settings: application amount 500 g a.i/ha, soil spray treatment before weeds are generated, about 21 days after the treatment, score 0 to 5
Method in brief: as §2

[10] = system: Abutilon theophrasti (velvetleaf); assay: Test Example-3: herbicidal effect by a treatment before weeds are generated under upland field conditions; settings: upland soil treatment before emergence, about 21 days after treatment, score 0-5
Source text: (§3) Using the formulation prepared according to the methods described above, the herbicidal effect of the bicyclic pyrazolinone derivative of the invention according to the methods shown in Test Examples below was examined. The herbicidal effect with respect to the test weeds or the phytotoxicity with respect to the test crops was examined according to the following criteria, and evaluated in six stage scores of 0 to 5. A vat having an area of 81 cm^2 and a depth of 3.5 cm was filled with upland soil, then, seeds of Ipomoea purpurea (tall morning glory), Amaranthus viridis (green amaranthus), Abutilon theophrasti (velvetleaf), Chenopodium album (common lambsquarters), and corn were seeded thereto, and the seeds were covered with soil of about 0.5 cm. Next day, a wettable powder or an emulsifiable concentrate of the compound of the present invention prepared according to Formulation Example was diluted, and a spray treatment was uniformly performed on the covered oil so as to be a predetermined dosage. The herbicidal effect with respect to the test weeds and the phytotoxicity with respect to corn about 21 days after the treatment were evaluated according to the evaluation criteria in six stages of 0 to 5 described above.

[11] = system: Amaranthus viridis (green amaranthus); assay: as above; settings: upland soil treatment before emergence, about 21 days after treatment, score 0-5
Source text: as §3

[12] = system: Chenopodium album (common lambsquarters); assay: as above; settings: upland soil treatment before emergence, about 21 days after treatment, score 0-5
Source text: as §3

[13] = system: Ipomoea purpurea (tall morning glory); assay: as above; settings: upland soil treatment before emergence, about 21 days after treatment, score 0-5
Source text: as §3

corn [14] = assay: Test Example-3: phytotoxicity by a treatment before weeds are generated under upland field conditions; settings: upland soil treatment before emergence, about 21 days after treatment, score 0-5
Source text: as §3

[15] = system: Abutilon theophrasti (velvetleaf); assay: Test Example-4: herbicidal effect by a foliage treatment after weeds are generated under upland field conditions; settings: 500 g a.i/ha, foliage treatment after emergence, about 14 days after treatment, score 0-5
Method in brief: (§4)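 Sown seeds, under about 0.5 cm of soil cover in upland soil, grew for 14 days before compound application. A wettable powder or emulsifiable concentrate, diluted to a predetermined dosage, was sprayed over foliage in 4000 L/ha water, with scoring on a 0–5 scale after roughly 14 days.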

[16] = system: Amaranthus viridis (green amaranthus); assay: as above; settings: 500 g a.i/ha, foliage treatment after emergence, about 14 days after treatment, score 0-5
Method in brief: as §4

[17] = system: Chenopodium album (common lambsquarters); assay: as above; settings: 500 g a.i/ha, foliage treatment after emergence, about 14 days after treatment, score 0-5
Method in brief: as §4

corn [18] = assay: Test Example-4: phytotoxicity by a foliage treatment after weeds are generated under upland field conditions; settings: 500 g a.i/ha, foliage treatment after emergence, about 14 days after treatment, score 0-5
Method in brief: as §4

[19] = system: Abutilon theophrasti (velvetleaf); assay: Test Example-5: herbicidal effect by a foliage treatment after weeds are generated under upland field conditions; settings: foliage treatment after emergence, about 14 days after treatment, score 0-5
Source text: as §3, with “While watering was suitably performed on there, the seeds were grown for 14 days. A” for “Next day, a”, “foliage portion of the plant” for “covered oil”, “dosage in the amount of water of 4000 L per hectare.” for “dosage.”, “14” for “21”

[20] = system: Amaranthus viridis (green amaranthus); assay: as above; settings: foliage treatment after emergence, about 14 days after treatment, score 0-5
Source text: as §3, with “While watering was suitably performed on there, the seeds were grown for 14 days. A” for “Next day, a”, “foliage portion of the plant” for “covered oil”, “dosage in the amount of water of 4000 L per hectare.” for “dosage.”, “14” for “21”

[21] = system: Chenopodium album (common lambsquarters); assay: as above; settings: foliage treatment after emergence, about 14 days after treatment, score 0-5
Source text: as §3, with “While watering was suitably performed on there, the seeds were grown for 14 days. A” for “Next day, a”, “foliage portion of the plant” for “covered oil”, “dosage in the amount of water of 4000 L per hectare.” for “dosage.”, “14” for “21”

[22] = system: Ipomoea purpurea (tall morning glory); assay: as above; settings: foliage treatment after emergence, about 14 days after treatment, score 0-5
Source text: as §3, with “While watering was suitably performed on there, the seeds were grown for 14 days. A” for “Next day, a”, “foliage portion of the plant” for “covered oil”, “dosage in the amount of water of 4000 L per hectare.” for “dosage.”, “14” for “21”

corn [23] = assay: Test Example-5: phytotoxicity by a foliage treatment after weeds are generated under upland field conditions; settings: foliage treatment after emergence, about 14 days after treatment, score 0-5
Source text: as §3, with “While watering was suitably performed on there, the seeds were grown for 14 days. A” for “Next day, a”, “foliage portion of the plant” for “covered oil”, “dosage in the amount of water of 4000 L per hectare.” for “dosage.”, “14” for “21”

## C#CCOc1cc(-c2c(Cl)n3n(c2=O)CCCC3)c(F)cc1Cl [Example 1-238]
[1]
  Herbicidal effect Cyperus difformis: 5 (Herbicidal effect/phytotoxicity was 90% or greater)
[2]
  Herbicidal effect Echinochloa oryzicola: 5 (Herbicidal effect/phytotoxicity was 90% or greater)
[3]
  Herbicidal effect Eleocharis acicularis: 5 (Herbicidal effect/phytotoxicity was 90% or greater)
[4]
  Herbicidal effect Monochoria vaginalis: 5 (Herbicidal effect/phytotoxicity was 90% or greater)
[5]
  Herbicidal effect Scirpus juncoides: 5 (Herbicidal effect/phytotoxicity was 90% or greater)
[6]
  Herbicidal effect Broadleaf weed: 5 (Herbicidal effect/phytotoxicity was 90% or greater)
[7]
  Herbicidal effect Amaranthus viridis: 5 (Herbicidal effect/phytotoxicity was 90% or greater)
[8]
  Herbicidal effect Chenopodium album: 5 (Herbicidal effect/phytotoxicity was 90% or greater)
Corn [9]
  Phytotoxicity Corn: 1 (Herbicidal effect/phytotoxicity was 10% to 30%)
[10]; 50 g a.i/ha
  Herbicidal effect Abutilon theophrast: 5 (Herbicidal effect/phytotoxicity was 90% or greater)
[10]; 100 g a.i/ha
  Herbicidal effect Abutilon theophrast: 5 (Herbicidal effect/phytotoxicity was 90% or greater)
[11]; 50 g a.i/ha
  Herbicidal effect Amaranthus viridis: 4 (Herbicidal effect/phytotoxicity was 70% to 90%)
[11]; 100 g a.i/ha
  Herbicidal effect Amaranthus viridis: 5 (Herbicidal effect/phytotoxicity was 90% or greater)
[12]; 50 g a.i/ha
  Herbicidal effect Chenopodium album: 5 (Herbicidal effect/phytotoxicity was 90% or greater)
[12]; 100 g a.i/ha
  Herbicidal effect Chenopodium album: 5 (Herbicidal effect/phytotoxicity was 90% or greater)
[13]; 50 g a.i/ha
  Herbicidal effect Ipomoea purpurea: 5 (Herbicidal effect/phytotoxicity was 90% or greater)
[13]; 100 g a.i/ha
  Herbicidal effect Ipomoea purpurea: 5 (Herbicidal effect/phytotoxicity was 90% or greater)
Corn [14]; 50 g a.i/ha
  Phytotoxicity Corn: 0 (Herbicidal effect/phytotoxicity was 0% to 10%)
Corn [14]; 100 g a.i/ha
  Phytotoxicity Corn: 0 (Herbicidal effect/phytotoxicity was 0% to 10%)
[15]
  Herbicidal effect Abutilon theophrast: 5 (Herbicidal effect/phytotoxicity was 90% or greater)
[16]
  Herbicidal effect Amaranthus viridis: 5 (Herbicidal effect/phytotoxicity was 90% or greater)
[17]
  Herbicidal effect Chenopodium album: 5 (Herbicidal effect/phytotoxicity was 90% or greater)
Corn [18]
  Phytotoxicity Corn: 3 (Herbicidal effect/phytotoxicity was 50% to 70%)
[19]; 12.5 g a.i/ha
  Herbicidal effect Abutilon theophrasti: 5 (Herbicidal effect/phytotoxicity was 90% or greater)
[19]; 25 g a.i/ha
  Herbicidal effect Abutilon theophrasti: 5 (Herbicidal effect/phytotoxicity was 90% or greater)
[20]; 12.5 g a.i/ha
  Herbicidal effect Amaranthus viridis: 5 (Herbicidal effect/phytotoxicity was 90% or greater)
[20]; 25 g a.i/ha
  Herbicidal effect Amaranthus viridis: 5 (Herbicidal effect/phytotoxicity was 90% or greater)
[21]; 12.5 g a.i/ha
  Herbicidal effect Chenopodium album: 5 (Herbicidal effect/phytotoxicity was 90% or greater)
[21]; 25 g a.i/ha
  Herbicidal effect Chenopodium album: 5 (Herbicidal effect/phytotoxicity was 90% or greater)
[22]; 12.5 g a.i/ha
  Herbicidal effect Ipomoea purpurea: 5 (Herbicidal effect/phytotoxicity was 90% or greater)
[22]; 25 g a.i/ha
  Herbicidal effect Ipomoea purpurea: 5 (Herbicidal effect/phytotoxicity was 90% or greater)
Corn [23]; 12.5 g a.i/ha
  Phytotoxicity Corn: 0 (Herbicidal effect/phytotoxicity was 0% to 10%)
Corn [23]; 25 g a.i/ha
  Phytotoxicity Corn: 0 (Herbicidal effect/phytotoxicity was 0% to 10%)
